Measured values taken from article PMC9814779, “A triple farnesoid X receptor and peroxisome proliferator-activated receptor α/δ activator reverses hepatic fibrosis in diet-induced NASH in mice” (Communications Chemistry, 2020).
Like-named read-outs stand apart in the source and are kept apart here.

What was measured:
Format in all cases: cell-based
Parameters in all cases: Emax: dose or concentration left out as unconfirmed
[1] = molecular target: T1, human PPARγ ligand-binding domain (Gal4 chimera) (Homo sapiens, UniProt P37231); experiment: Gal4 hybrid reporter gene assay, PPARγ
T1 construct: coding for the hinge region and LBD of the canonical isoform of the respective nuclear receptor; expressed in transfected cells; host or cells: HEK293T
T1 sequence (P37231 238-503 limits assumed): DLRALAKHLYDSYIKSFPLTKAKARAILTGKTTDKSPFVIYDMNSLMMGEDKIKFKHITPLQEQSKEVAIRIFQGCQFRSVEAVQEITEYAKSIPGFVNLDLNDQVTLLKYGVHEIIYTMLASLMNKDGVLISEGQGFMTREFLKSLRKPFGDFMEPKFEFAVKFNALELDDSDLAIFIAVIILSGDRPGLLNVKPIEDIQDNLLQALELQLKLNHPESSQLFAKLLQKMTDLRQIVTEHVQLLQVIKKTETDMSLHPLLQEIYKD

[2] = molecular target: T2, human PPARα ligand-binding domain (Gal4 chimera) (Homo sapiens, UniProt Q07869); experiment: Gal4 hybrid reporter gene assay, PPARα; details: for EC50: mean ± SEM
T2 construct: coding for the hinge region and LBD of the canonical isoform of the respective nuclear receptor; expressed in transfected cells; host or cells: HEK293T
T2 sequence (Q07869 239-466 limits assumed): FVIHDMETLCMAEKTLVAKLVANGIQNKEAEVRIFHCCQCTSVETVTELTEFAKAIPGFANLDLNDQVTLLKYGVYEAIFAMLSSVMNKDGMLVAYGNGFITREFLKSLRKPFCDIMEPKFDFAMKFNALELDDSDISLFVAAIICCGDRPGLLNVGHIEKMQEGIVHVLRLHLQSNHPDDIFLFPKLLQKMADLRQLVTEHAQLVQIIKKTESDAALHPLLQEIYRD

[3] = molecular target: T3, human PPARδ ligand-binding domain (Gal4 chimera) (Homo sapiens, UniProt Q03181); experiment: Gal4 hybrid reporter gene assay, PPARδ; details: for EC50: Supplementary Table 1, chromene derivatives, mean ± SEM, n ≥ 2, read-out: PPAR EC50; for Emax: read-out: PPAR max. rel. act.
T3 construct: coding for the hinge region and LBD of the canonical isoform of the respective nuclear receptor; expressed in transfected cells; host or cells: HEK293T
T3 sequence (Q03181 211-439 limits assumed): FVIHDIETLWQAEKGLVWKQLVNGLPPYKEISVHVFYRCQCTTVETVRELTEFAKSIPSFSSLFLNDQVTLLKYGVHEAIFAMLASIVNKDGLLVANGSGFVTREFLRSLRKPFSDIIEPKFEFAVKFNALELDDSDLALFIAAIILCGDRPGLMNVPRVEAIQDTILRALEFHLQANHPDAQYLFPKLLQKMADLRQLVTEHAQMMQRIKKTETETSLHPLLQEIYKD

[4] = molecular target: T4, human FXR:retinoid X receptor (RXR) heterodimer (Homo sapiens, UniProt Q96RI1); experiment: Full-length FXR reporter gene assay (BSEP response element) in HeLa cells; details: for EC50: mean ± SEM; for FXR max. rel. act.: Supplementary Table 1, relative to GW4064 at 3 µM
T4 construct: pcDNA3-hFXR[32] and pSG5-hRXR[33] served for receptor overexpression in the full-length FXR assay; expressed in transfected cells; host or cells: HeLa
T4 sequence (P19793 whole entry): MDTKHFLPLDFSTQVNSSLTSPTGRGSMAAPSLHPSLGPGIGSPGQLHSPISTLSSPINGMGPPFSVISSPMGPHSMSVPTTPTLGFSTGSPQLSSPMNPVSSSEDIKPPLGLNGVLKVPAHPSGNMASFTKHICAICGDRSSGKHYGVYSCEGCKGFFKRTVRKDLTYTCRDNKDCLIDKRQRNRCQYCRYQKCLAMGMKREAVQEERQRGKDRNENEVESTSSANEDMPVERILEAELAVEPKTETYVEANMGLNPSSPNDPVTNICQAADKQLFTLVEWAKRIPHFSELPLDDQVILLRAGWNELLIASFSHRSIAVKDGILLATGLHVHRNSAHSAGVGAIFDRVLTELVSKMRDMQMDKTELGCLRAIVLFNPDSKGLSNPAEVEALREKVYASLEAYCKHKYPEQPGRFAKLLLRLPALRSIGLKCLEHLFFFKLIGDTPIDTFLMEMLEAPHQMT
T4 sequence (Q96RI1 whole entry): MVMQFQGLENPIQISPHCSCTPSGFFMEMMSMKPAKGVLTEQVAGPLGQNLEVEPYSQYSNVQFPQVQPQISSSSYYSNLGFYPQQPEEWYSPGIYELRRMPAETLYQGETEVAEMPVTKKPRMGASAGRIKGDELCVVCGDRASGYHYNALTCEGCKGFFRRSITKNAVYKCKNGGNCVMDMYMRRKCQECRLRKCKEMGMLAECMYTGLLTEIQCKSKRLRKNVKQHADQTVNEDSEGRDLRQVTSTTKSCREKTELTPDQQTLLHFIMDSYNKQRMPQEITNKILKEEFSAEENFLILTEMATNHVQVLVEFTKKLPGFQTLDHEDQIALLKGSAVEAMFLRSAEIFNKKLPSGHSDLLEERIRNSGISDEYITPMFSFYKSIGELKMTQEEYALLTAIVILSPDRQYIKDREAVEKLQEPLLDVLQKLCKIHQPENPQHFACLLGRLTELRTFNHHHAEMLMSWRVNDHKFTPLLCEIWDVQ

[5] = Supplementary Table 1, chromene derivatives, mean ± SEM, n ≥ 2, read-out: PPAR EC50
[6] = PPAR EC50 [M], Supplementary Table 1, chromene derivatives, n ≥ 2
[7] = Supplementary Table 1, chromene derivatives, n ≥ 2, read-out: FXR EC50
[8] = EC50 [μM] PPARα, HEK293T, n = 3

| Structure (SMILES) | EC50 [1, 5] [µM] | Emax ([1]; read-out: PPAR max. rel. act.) [%] | EC50 [2, 6] [M] | Emax ([2]; read-out: PPAR max. rel. act.) [%] | EC50 [3] [µM] | Emax [3] [%] | EC50 [4, 7] [µM] | FXR max. rel. act. ([4]; n ≥ 2) [%] | EC50 [1] [µM] | Emax ([1]; read-out: max. rel. act. PPARγ) [%] | preference over PPARγ ([1]; triple FXR/PPARα/δ potency versus PPARγ) | EC50 [2, 8] [M] | Emax ([2]; read-out: max. rel. act. PPARα) [%] | Emax ([4]; HeLa, read-out: max. rel. act. FXR) [%] | EC50 ([4]; HeLa, n = 3, read-out: EC50 [μM] FXR) [µM] |
| --- | --- | --- | --- | --- | --- | --- | --- | --- | --- | --- | --- | --- | --- | --- | --- |
| O=C(O)CCc1cccc(NC(=O)c2ccccc2NC(=O)C2=Cc3ccccc3OC2)c1 [S1, 3-(3-[2-{2H-Chromene-3-carboxamido}benzamido]phenyl)propanoic acid] | 7.7 ± 0.6 | 6.6 ± 0.2 | 5.2e-06 ± 8e-07 | 26 ± 3 | 1.2 ± 0.1 | 26 ± 1 | 4.1 ± 0.8 | 14 ± 1 |  |  |  |  |  |  |  |
| O=C(O)CCc1cccc(NC(=O)c2ccccc2NC(=O)C2=C(Cl)c3ccccc3OC2)c1 [S2, 3-(3-[2-{4-Chloro-2H-chromene-3-carboxamido}benzamido]phenyl)propanoic acid] | 2.3 ± 0.1 | 9 ± 0.1 | 4.6e-07 ± 3e-08 | 31 ± 1 | 0.42 ± 0.01 | 31 ± 1 | 11 ± 1 | 16 ± 1 |  |  |  |  |  |  |  |
| Cc1cccc2c1C=C(C(=O)Nc1ccccc1C(=O)Nc1cccc(CCC(=O)O)c1)CO2 [S3, 3-(3-[2-{5-Methyl-2H-chromene-3-carboxamido}benzamido]phenyl)propanoic acid] | 8 ± 0.8 | 14 ± 1 | 8.3e-07 ± 1e-07 | 24 ± 1 | 0.67 ± 0.04 | 27 ± 1 | 4.3 ± 0.3 | 11 ± 1 |  |  |  |  |  |  |  |
| Cc1ccc2c(c1)C=C(C(=O)Nc1ccccc1C(=O)Nc1cccc(CCC(=O)O)c1)CO2 [S4, 3-(3-[2-{6-Methyl-2H-chromene-3-carboxamido}benzamido]phenyl)propanoic acid] | 5 ± 1.6 | 36 ± 8 | 8.4e-07 ± 1e-07 | 29 ± 1 | 1.5 ± 0.2 | 16 ± 1 | 5.4 ± 0.1 | 12 ± 1 |  |  |  |  |  |  |  |
| O=C(O)CCc1cccc(NC(=O)c2ccccc2NC(=O)C2=Cc3cc(F)ccc3OC2)c1 [S5, 3-(3-[2-{6-Fluoro-2H-chromene-3-carboxamido}benzamido]phenyl)propanoic acid] | 4.6 ± 0.8 | 17 ± 1 | 1.8e-06 ± 6e-07 | 20 ± 1 | 2.6 ± 0.8 | 20 ± 3 | > 10 |  |  |  |  |  |  |  |  |
| O=C(O)CCc1cccc(NC(=O)c2ccccc2NC(=O)C2=Cc3cc(Cl)ccc3OC2)c1 [S6] | 3 ± 0.5 | 5.1 ± 0.3 | 3.1e-06 ± 4e-07 | 27 ± 2 | 1.6 ± 0.5 | 14 ± 2 | > 10 |  |  |  |  |  |  |  |  |
| Cc1ccc2c(c1)OCC(C(=O)Nc1ccccc1C(=O)Nc1cccc(CCC(=O)O)c1)=C2 [S7] | 5 ± 1.6 | 7.9 ± 1.4 | 3.4e-06 ± 1e-07 | 38 ± 1 | 1.1 ± 0.1 | 30 ± 1 | > 10 |  |  |  |  |  |  |  |  |
| Cc1cccc2c1OCC(C(=O)Nc1ccccc1C(=O)Nc1cccc(CCC(=O)O)c1)=C2 [S8] | 3.1 ± 0.2 | 9.3 ± 0.5 | 3.5e-06 ± 2e-07 | 29 ± 1 | 1.2 ± 0.4 | 18 ± 2 | > 10 |  |  |  |  |  |  |  |  |
| O=C(O)CCc1cccc(NC(=O)c2ccccc2NC(=O)C2=Cc3cccc(Cl)c3OC2)c1 [S9] | 2.4 ± 0.2 | 7.6 ± 0.2 | 2.3e-06 ± 1e-07 | 35 ± 1 | 0.91 ± 0.36 | 16 ± 2 | > 10 |  |  |  |  |  |  |  |  |
| COc1cccc2c1OCC(C(=O)Nc1ccccc1C(=O)Nc1cccc(CCC(=O)O)c1)=C2 [S10] | 23 ± 2 | 8.6 ± 0.6 | 6.6e-06 ± 1.8e-06 | 26 ± 5 | 5.2 ± 0.2 | 30 ± 1 | 2.8 ± 0.3 | 14 ± 1 |  |  |  |  |  |  |  |
| CC(C)(C)c1ccc(C(=O)Nc2cccc(CCC(=O)O)c2)c(NC(=O)c2ccc3ccccc3c2)c1 [compound 24] |  |  |  |  |  |  |  |  | 1.5 ± 0.1 | 20 | approximately fivefold preference over PPARγ | 3.1e-07 ± 8e-08 | 63 |  |  |
| O=C(O)CCc1cccc(NC(=O)c2ccccc2NC(=O)c2ccc(-c3ccoc3)cc2)c1 [compound 32] |  |  |  |  |  |  |  |  | 4.2 ± 0.9 | 38 |  | 1.6e-06 ± 3e-07 | 31 | 20 | 0.23 ± 0.01 |
